{"source": "paper PMC9103705", "about": "“Effects of Drugs Formerly Proposed for COVID-19 Treatment on Connexin43 Hemichannels” (International Journal of Molecular Sciences, 2022)", "key": {"DUBCA-hCx43 cells": {"test_system": "DUBCA-hCx43 cells", "assay": "MTT cell viability assay for CC10 determination, 24 h drug exposure", "settings": "24 h exposure; for CC10 (concentration inducing 10% cell death): extrapolated from concentration-response curves"}, "Cx43 mRNA expression": {"test_system": "Cx43 mRNA expression", "assay": "RT-qPCR analysis of Cx43 mRNA expression", "assay_type": "cell-based, human", "settings": "DUBCA-hCx43 cells, 24 h; for Cx43 mRNA expression: CC10, CC10/2 and CC10/10 (all tested concentrations)"}, "Cx43 hemichannels": {"biological_target": "T1, Cx43 hemichannels (Homo sapiens, UniProt P17302)", "T1 construct": "expressed in transfected cells; host or cells: HEK293 (HEK-hCx43, transduced)", "T1 sequence (P17302 whole entry)": "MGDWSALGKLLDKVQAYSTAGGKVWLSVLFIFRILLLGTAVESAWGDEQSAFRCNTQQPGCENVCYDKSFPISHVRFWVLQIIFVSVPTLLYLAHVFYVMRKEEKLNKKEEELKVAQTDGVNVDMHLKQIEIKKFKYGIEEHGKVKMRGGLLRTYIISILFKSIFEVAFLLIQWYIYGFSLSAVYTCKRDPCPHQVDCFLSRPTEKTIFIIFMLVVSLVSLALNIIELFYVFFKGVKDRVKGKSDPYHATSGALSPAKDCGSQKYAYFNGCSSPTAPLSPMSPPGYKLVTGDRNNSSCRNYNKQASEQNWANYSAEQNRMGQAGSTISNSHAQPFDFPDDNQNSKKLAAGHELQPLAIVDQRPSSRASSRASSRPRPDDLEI", "assay": "Cx43 hemichannel activity assay (extracellular ATP release, bioluminescence)", "assay_type": "cell-based", "settings": "HEK-hCx43 cells; for extracellular ATP release (Cx43 hemichannel activity) compared to DF control: 30 min exposure in DF buffer; for extracellular ATP levels at lower concentrations: CC10/2: 8.5 µM azithromycin, 7 µM chloroquine, 6.25 µM hydroxychloroquine; for extracellular ATP release at highest applied concentration: lopinavir 190 µM, remdesivir 500 µM (CC10 x10)"}, "[1]": {"test_system": "gap junctional communication", "settings": "cited from earlier work"}, "[2]": {"settings": "retrieved from the literature; cited from earlier work"}, "Cx43 protein expression": {"test_system": "Cx43 protein expression", "settings": "cited from earlier work"}}, "data": [{"smiles": "NC(=O)c1ncn([C@@H]2O[C@H](CO)[C@@H](O)[C@H]2O)n1", "note": "[Ribavirin]", "values": [{"measurement": "CC10 (concentration inducing 10% cell death)", "setting": "DUBCA-hCx43 cells", "value": 10, "unit": "µM"}, {"measurement": "Cx43 mRNA expression", "setting": "Cx43 mRNA expression", "value": "no effects"}, {"measurement": "extracellular ATP release (Cx43 hemichannel activity) compared to DF control", "setting": "Cx43 hemichannels", "value": "not significantly different from the DF control"}]}, {"smiles": "CCN(CC)CCCC(C)Nc1ccnc2cc(Cl)ccc12", "note": "(stereo not drawn) [Chloroquine (diphosphate), Chloroquine]", "values": [{"measurement": "Cx43 mRNA expression", "setting": "Cx43 mRNA expression", "value": "no effects"}, {"measurement": "extracellular ATP levels at lower concentrations", "setting": "Cx43 hemichannels; 30 min", "value": "increase extracellular ATP levels"}, {"measurement": "gap junctional communication", "setting": "[1]", "value": "did not had any effects"}, {"measurement": "Cmax (total peak plasma concentration at therapeutic dose)", "setting": "[2]", "value": "0.81 [24] µM"}]}, {"smiles": "CC[C@H]1OC(=O)[C@H](C)[C@@H](O[C@H]2C[C@@](C)(OC)[C@@H](O)[C@H](C)O2)[C@H](C)[C@@H](O[C@@H]2O[C@H](C)C[C@H](N(C)C)[C@H]2O)[C@](C)(O)C[C@@H](C)CN(C)[C@H](C)[C@@H](O)[C@]1(C)O", "note": "[Azithromycin (dihydrate), Azithromycin]", "values": [{"measurement": "CC10 (concentration inducing 10% cell death)", "setting": "DUBCA-hCx43 cells", "value": 17, "unit": "µM"}, {"measurement": "Cx43 mRNA expression", "setting": "Cx43 mRNA expression", "value": "no effects"}, {"measurement": "extracellular ATP levels at lower concentrations", "setting": "Cx43 hemichannels; 30 min", "value": "increase extracellular ATP levels"}, {"measurement": "Cmax (total peak plasma concentration at therapeutic dose)", "setting": "[2]", "value": "0.52 [23] µM"}]}, {"smiles": "CCC(CC)COC(=O)[C@H](C)N[P@](=O)(OC[C@H]1O[C@@](C#N)(c2ccc3c(N)ncnn23)[C@H](O)[C@@H]1O)Oc1ccccc1", "note": "[Remdesivir]", "values": [{"measurement": "CC10 (concentration inducing 10% cell death)", "setting": "DUBCA-hCx43 cells", "value": 50, "unit": "µM"}, {"measurement": "Cx43 mRNA expression at 5 µM", "setting": "Cx43 mRNA expression; effect only seen at 5 µM", "value": "decrease in Cx43 mRNA expression"}, {"measurement": "extracellular ATP release at highest applied concentration", "setting": "Cx43 hemichannels; 30 min", "value": "released a significantly higher amount of ATP"}, {"measurement": "Cmax (total peak plasma concentration at therapeutic dose)", "setting": "[2]", "value": "9.03 [29] µM"}]}, {"smiles": "CCN(CCO)CCCC(C)Nc1ccnc2cc(Cl)ccc12", "note": "(stereo not drawn) [Hydroxychloroquine (sulphate), Hydroxychloroquine]", "values": [{"measurement": "CC10 (concentration inducing 10% cell death)", "setting": "DUBCA-hCx43 cells", "value": 12.5, "unit": "µM"}, {"measurement": "Cx43 mRNA expression", "setting": "Cx43 mRNA expression", "value": "no effects"}, {"measurement": "extracellular ATP levels at lower concentrations", "setting": "Cx43 hemichannels; 30 min", "value": "increase extracellular ATP levels"}, {"measurement": "Cx43 protein expression in cardiomyocytes", "setting": "Cx43 protein expression", "value": "induced an elevation of Cx43 protein expression"}]}, {"smiles": "NC(=O)c1nc(F)c[nH]c1=O", "note": "[Favipiravir]", "values": [{"measurement": "cytotoxic effect on the cells", "setting": "DUBCA-hCx43 cells", "value": "did not show any cytotoxic effect"}, {"measurement": "CC10 (concentration inducing 10% cell death)", "setting": "DUBCA-hCx43 cells", "value": ">400", "unit": "µM"}, {"measurement": "Cx43 mRNA expression", "setting": "Cx43 mRNA expression", "value": "no effects"}, {"measurement": "extracellular ATP release (Cx43 hemichannel activity) compared to DF control", "setting": "Cx43 hemichannels", "value": "not significantly different from the DF control"}, {"measurement": "Cmax (total peak plasma concentration at therapeutic dose)", "setting": "[2]", "value": "53.4 [26] µM"}]}, {"smiles": "C[C@@H]1C[C@H]2[C@@H]3CCC4=CC(=O)C=C[C@]4(C)[C@@]3(F)[C@@H](O)C[C@]2(C)[C@@]1(O)C(=O)CO", "note": "[Dexamethasone]", "values": [{"measurement": "cytotoxic effect on the cells", "setting": "DUBCA-hCx43 cells", "value": "did not show any cytotoxic effect"}, {"measurement": "CC10 (concentration inducing 10% cell death)", "setting": "DUBCA-hCx43 cells", "value": ">200", "unit": "µM"}, {"measurement": "Cx43 mRNA expression", "setting": "Cx43 mRNA expression", "value": "no effects"}, {"measurement": "concentration dependence of ATP release", "setting": "Cx43 hemichannels; 30 min, stepwise increase in ATP at lower concentrations", "value": "might have a concentration-dependent effect on ATP release"}, {"measurement": "extracellular ATP release (Cx43 hemichannel activity) compared to DF control", "setting": "Cx43 hemichannels", "value": "not significantly different from the DF control"}, {"measurement": "gap junctional communication", "setting": "[1]", "value": "reduce gap junctional communication"}, {"measurement": "Cmax (total peak plasma concentration at therapeutic dose)", "setting": "[2]", "value": "0.63 [25] µM"}]}, {"smiles": "CC1(C)[C@@H](OC(=O)CCC(=O)O)CC[C@]2(C)[C@H]3C(=O)C=C4[C@@H]5C[C@@](C)(C(=O)O)CC[C@]5(C)CC[C@@]4(C)[C@]3(C)CC[C@@H]12", "note": "[Cbx, carbenoxolone]", "values": [{"measurement": "extracellular ATP release (Cx43 hemichannel activity) compared to DF control", "setting": "Cx43 hemichannels", "value": "lower ATP levels"}]}, {"smiles": "CC(C)c1nc(CN(C)C(=O)N[C@H](C(=O)N[C@@H](Cc2ccccc2)C[C@H](O)[C@H](Cc2ccccc2)NC(=O)OCc2cncs2)C(C)C)cs1", "note": "[Ritonavir]", "values": [{"measurement": "CC10 (concentration inducing 10% cell death)", "setting": "DUBCA-hCx43 cells", "value": 16, "unit": "µM"}, {"measurement": "Cx43 mRNA expression", "setting": "Cx43 mRNA expression", "value": "no effects"}, {"measurement": "extracellular ATP release (Cx43 hemichannel activity) compared to DF control", "setting": "Cx43 hemichannels", "value": "not significantly different from the DF control"}, {"measurement": "Cmax (total peak plasma concentration at therapeutic dose)", "setting": "[2]", "value": "1.17 [31] µM"}]}, {"smiles": "Cc1cccc(C)c1OCC(=O)N[C@@H](Cc1ccccc1)[C@@H](O)C[C@H](Cc1ccccc1)NC(=O)[C@H](C(C)C)N1CCCNC1=O", "note": "[Lopinavir]", "values": [{"measurement": "CC10 (concentration inducing 10% cell death)", "setting": "DUBCA-hCx43 cells", "value": 19, "unit": "µM"}, {"measurement": "Cx43 mRNA expression", "setting": "Cx43 mRNA expression", "value": "no effects"}, {"measurement": "extracellular ATP release at highest applied concentration", "setting": "Cx43 hemichannels; 30 min", "value": "released a significantly higher amount of ATP"}]}]}
